Laboratory results as given in US12692238B2, “Substituted pyridazinone herbicides” (FMC CORPORATION, priority 2020, dated 2026).

Assays:
Assay type in all cases: in vivo
corn (Zea mays) [1] = test: Test A postemergence, corn; details: 10 days
How it was run: (§1)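 Herbicidal response was scored visually after ten greenhouse days, comparing treated pots with untreated ones on a 0–100 control scale. Preemergence application was a directed soil spray; postemergence plants were treated at 2 to 10 cm height.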

[2] = tested on: foxtail, giant (giant foxtail, Setaria faberi); test: Test A preemergence, foxtail, giant; details: 0 to 100 scale, 10 days
How it was run: as §1

[3] = tested on: ryegrass, Italian (Italian ryegrass, Lolium multiflorum); test: Test A preemergence, ryegrass, Italian; details: 0 to 100 scale, 10 days
How it was run: as §1

[4] = tested on: palmer amaranth (pigweed, palmer, Amaranthus palmeri); test: Test A postemergence, palmer amaranth; details: 10 days
Description: (§2) Seeds of plant species selected from barnyardgrass (Echinochloa crus-galli), blackgrass (Alopecurus myosuroides), corn (Zea mays), foxtail, giant (giant foxtail, Setaria faberi), foxtail, green (green foxtail, Setaria viridis), goosegrass (Eleusine indica), kochia (Bassia scoparia), oat, wild (wild oat, Avena fatua), palmer amaranth (pigweed, palmer, Amaranthus palmeri), redroot pigweed (Amaranthus retroflexus), ragweed (common ragweed, Ambrosia artemisiifolia), ryegrass, Italian (Italian ryegrass, Lolium multiflorum), and soybean (Glycine max) were planted into a blend of loam soil and sand and treated preemergence with a directed soil spray using test chemicals formulated in a non-phytotoxic solvent mixture which included a surfactant.
(§3) At the same time, plants selected from these crop and weed species and also wheat (Triticum aestivum), galium (catchweed bedstraw, Galium aparine) and horseweed (Erigeron canadensis) were planted in pots containing the same blend of loam soil and sand and treated with postemergence applications of test chemicals formulated in the same manner. Plants ranged in height from 2 to 10 cm and were in the one- to two-leaf stage for the postemergence treatment. Treated plants and untreated controls were maintained in a greenhouse for 10 days, after which time all treated plants were compared to untreated controls and visually evaluated for injury. Plant response ratings, summarized in Table A, are based on a 0 to 100 scale where 0 is no effect and 100 is complete control. A dash (-) response means no test result.

[5] = tested on: ragweed (common ragweed, Ambrosia artemisiifolia); test: Test A postemergence, ragweed; details: 10 days
How it was run: as §1

[6] = tested on: ragweed (common ragweed, Ambrosia artemisiifolia); test: Test A preemergence, ragweed; details: 0 to 100 scale, 10 days
How it was run: as §1

[7] = tested on: sedge, umbrella (small-flower umbrella sedge, Cyperus difformis); test: Test B flooded paddy test, sedge, umbrella; details: 250 g ai/ha, Flood; visually evaluated after 10 to 14 days
How it was run: (§4)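 Water-applied treatment of 2-leaf plants in pots kept flooded at 3 cm. Visual control rating (0–100) against untreated plants after 10–14 greenhouse days.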

[8] = tested on: wheat (Triticum aestivum); test: Test A postemergence, wheat; details: 10 days
How it was run: as §1

[9] = tested on: horseweed (Erigeron canadensis); test: Test A postemergence, horseweed; details: 10 days
Description: as §2, §3

soybean (Glycine max) [10] = test: Test A preemergence, soybean; details: 0 to 100 scale, 10 days
Description: as §2, §3

corn (Zea mays) [11] = test: Test A preemergence, corn; details: 0 to 100 scale, 10 days
Description: as §2, §3

soybean (Glycine max) [12] = test: Test A postemergence, soybean; details: 10 days
Description: as §2, §3

kochia (Bassia scoparia) [13] = test: Test A preemergence, kochia; details: 0 to 100 scale, 10 days
How it was run: as §1

[14] = tested on: barnyardgrass (Echinochloa crus-galli); test: Test B flooded paddy test, barnyardgrass; details: 250 g ai/ha, Flood; visually evaluated after 10 to 14 days
How it was run: as §4

[15] = tested on: blackgrass (Alopecurus myosuroides); test: Test A postemergence, blackgrass; details: 10 days
How it was run: as §1

[16] = tested on: foxtail, giant (giant foxtail, Setaria faberi); test: Test A postemergence, foxtail, giant; details: 10 days
How it was run: as §1

[17] = tested on: goosegrass (Eleusine indica); test: Test A preemergence, goosegrass; details: 0 to 100 scale, 10 days
Description: as §2, §3

[18] = tested on: wheat (Triticum aestivum); test: Test A preemergence, wheat; details: 125 g ai/ha, 0 to 100 scale, 10 days
[19] = tested on: galium (catchweed bedstraw, Galium aparine); test: Test A postemergence, galium; details: 10 days
How it was run: as §1

rice (Oryza sativa) = test: Test B flooded paddy test, rice; details: 250 g ai/ha, Flood; visually evaluated after 10 to 14 days
How it was run: as §4

[20] = tested on: goosegrass (Eleusine indica); test: Test A postemergence, goosegrass; details: 10 days
Description: as §2, §3

[21] = tested on: palmer amaranth (pigweed, palmer, Amaranthus palmeri); test: Test A preemergence, palmer amaranth; details: 0 to 100 scale, 10 days
Description: as §2, §3

[22] = tested on: ducksalad (Heteranthera limosa); test: Test B flooded paddy test, ducksalad; details: 250 g ai/ha, Flood; visually evaluated after 10 to 14 days
How it was run: as §4

[23] = tested on: oat, wild (wild oat, Avena fatua); test: Test A postemergence, oat, wild; details: 10 days
Description: as §2, §3

[24] = tested on: oat, wild (wild oat, Avena fatua); test: Test A preemergence, oat, wild; details: 0 to 100 scale, 10 days
Description: as §2, §3

[25] = tested on: ryegrass, Italian (Italian ryegrass, Lolium multiflorum); test: Test A postemergence, ryegrass, Italian; details: 10 days
How it was run: as §1

kochia (Bassia scoparia) [26] = test: Test A postemergence, kochia; details: 10 days
How it was run: as §1

[27] = tested on: blackgrass (Alopecurus myosuroides); test: Test A preemergence, blackgrass; details: 0 to 100 scale, 10 days
Description: as §2, §3

[28] = 31 g ai/ha, postemergence, 0 to 100 scale (0 no effect, 100 complete control)
[29] = Postemergence, 125 g ai/ha, 0 to 100 scale

Cc1ccc2cc3ccc(F)cc3c(-c3c(OCOC(=O)C(C)(C)C)c(C)nn(C)c3=O)c2c1 [Compound 21]
Plant response rating, Corn (corn (Zea mays) [1]; [28]): 30 | Plant response rating, Corn (corn (Zea mays) [1]; [29]): 40 | Plant response rating, Foxtail, Giant ([2]; 31 g ai/ha): 80 | Plant response rating, Foxtail, Giant ([2]; 125 g ai/ha): 100 | Plant response rating, Ryegrass, Italian ([3]; 31 g ai/ha): 40 | Plant response rating, Ryegrass, Italian ([3]; 125 g ai/ha): 90 | Plant response rating, Pigweed, Palmer [4, 28]: 100 | Plant response rating, Pigweed, Palmer [4, 29]: 100 | Plant response rating, Ragweed [5, 28]: 100 | Plant response rating, Ragweed [5, 29]: 100 | Plant response rating, Ragweed ([6]; 31 g ai/ha): 50 | Plant response rating, Ragweed ([6]; 125 g ai/ha): 90 | Plant response rating, Sedge, Umbrella (0 to 100 scale where 0 is no effect and 100 is complete control) [7]: 100 | Plant response rating, Wheat [8, 28]: 0 | Plant response rating, Wheat [8, 29]: 0 | Plant response rating, Horseweed [9, 28]: 100 | Plant response rating, Horseweed [9, 29]: 100 | Plant response rating, Soybean (soybean (Glycine max) [10]; 31 g ai/ha): 0 | Plant response rating, Soybean (soybean (Glycine max) [10]; 125 g ai/ha): 0 | Plant response rating, Corn (corn (Zea mays) [11]; 31 g ai/ha): 0 | Plant response rating, Corn (corn (Zea mays) [11]; 125 g ai/ha): 0 | Plant response rating, Soybean (soybean (Glycine max) [12]; [28]): 100 | Plant response rating, Soybean (soybean (Glycine max) [12]; [29]): 100 | Plant response rating, Kochia (kochia (Bassia scoparia) [13]; 31 g ai/ha): 100 | Plant response rating, Kochia (kochia (Bassia scoparia) [13]; 125 g ai/ha): 100 | Plant response rating, Barnyardgrass (0 to 100 scale where 0 is no effect and 100 is complete control) [14]: 98 | Plant response rating, Blackgrass [15, 28]: 20 | Plant response rating, Blackgrass [15, 29]: 20 | Plant response rating, Foxtail, Giant [16, 28]: 90 | Plant response rating, Foxtail, Giant [16, 29]: 100 | Plant response rating, Goosegrass ([17]; 31 g ai/ha): 40 | Plant response rating, Goosegrass ([17]; 125 g ai/ha): 60 | Plant response rating, Wheat [18]: 0 | Plant response rating, Galium [19, 28]: 100 | Plant response rating, Galium [19, 29]: 100 | Plant response rating, Rice (0 to 100 scale where 0 is no effect and 100 is complete control) (rice (Oryza sativa)): 60 | Plant response rating, Goosegrass [20, 28]: 20 | Plant response rating, Goosegrass [20, 29]: 30 | Plant response rating, Pigweed, Palmer ([21]; 31 g ai/ha): 100 | Plant response rating, Pigweed, Palmer ([21]; 125 g ai/ha): 100 | Plant response rating, Ducksalad (0 to 100 scale where 0 is no effect and 100 is complete control) [22]: 100 | Plant response rating, Oat, Wild [23, 28]: 10 | Plant response rating, Oat, Wild [23, 29]: 40 | Plant response rating, Oat, Wild ([24]; 31 g ai/ha): 0 | Plant response rating, Oat, Wild ([24]; 125 g ai/ha): 40 | Plant response rating, Ryegrass, Italian [25, 28]: 80 | Plant response rating, Ryegrass, Italian [25, 29]: 100 | Plant response rating, Kochia (kochia (Bassia scoparia) [26]; [28]): 90 | Plant response rating, Kochia (kochia (Bassia scoparia) [26]; [29]): 100 | Plant response rating, Blackgrass ([27]; 31 g ai/ha): 0 | Plant response rating, Blackgrass ([27]; 125 g ai/ha): 40
